Experimental data as given in patent US11464751B2, “Use of fluoroethylnormemantine for the prevention and treatment of anxiety” (REST THERAPEUTICS, priority 2017, dated 2022).

Tests used:
naive rats (Wistar) [1] = assay: Fear conditioning + extinction + stabilization (PTSD model); format: in vivo, rat
From the text: Several animal models have been developed to mimic the traumatic events that induce intense and recurrent fear symptoms characteristic of PTSD. • Pavlovian fear conditioning of the animals: This animal model consists of Pavlovian-type fear conditioning (Zovkic, Neuropsychopharmacology Reviews (2013) 38, 77-93): mice (or rats) are trained to associate exposure to danger (electric shock, etc.) with the presence of a specific cue or environment (sound cue for example). The memory of this association (danger-cue) is later tested by measuring tetany behavior (through fear) when the animal is re-exposed to the conditioning cue in the absence of real danger.
Again, the occurrence of symptoms of PTSD are assessed after a certain period of time, without exposure to the hazard, to simulate the long-term onset of PTSD pathology. • Fear extinction: After a fear conditioning as described above it can be of interest to apply a protocol to extinguish this fear. Classically, this phase is placed 24 hours after the conditioning phase.
The extinction protocols model the relearning of the normal (non-fear-motivated) response to the cue (sound) and are very useful in modeling PTSD. • Fear stabilization: It can be useful, to assess the performance of a treatment, to add a stabilization phase after the extinction phase, spaced 24 h apart. Typically, this phase puts the animals back under the extinction phase conditions. It then allows the detection of staggered performances of the treatments, but also of the resurgence of tetany (rebound effect).
(§1) In the following examples, the effects of memantine, propranolol and fluoroethylnormemantine (FENM, the subject of the present invention) are studied in naive rats (Wistar) subjected to various tests related to depression or anxiety and then compared.
(§2) The test substances are administered to rats intraperitoneally in a volume of 5 ml/kg, 30 minutes before the behavioral tests are performed.
(§3) The injected solutions contain either of the molecules in the form of one of their salts, a hydrochloride (memantine·HCl and FENM·HCl) for the nitrogen derivatives and as such for propranolol, at the concentrations indicated below in a mixture of 95% (NaCl 0.9% ww in water)/5% ethanol. In each experiment, the dose per kilogram is referenced.
The applicant used a fear conditioning test in which the clue (neutral conditional stimulus) is a sound, coupled with a danger (aversive unconditional stimulus) which is an electric shock delivered by the floor of the box. This conditioning is followed by a fear extinction phase with injection of the treatment solutions to be tested and then by a test phase itself. • Fear Conditioning Phase (FC): fear conditioning takes place in a standard conditioning box (context A, white box in Table 7) and the rats (8 per group) are subjected to 3 “sound-electroshock” pairs at times of 180 s, 381 s and 582 s after being placed in the box. Each sound lasts 20 s and each electroshock lasts 1 s with a current of 1 mA. • The fear extinction phase (Ext.) is conducted as follows: the rats are placed in a box similar to the one that will be used for the final test (context B, pink box in Table 7), for a 25-minute session. During this session, 24 presentations are made with the same sound as that used during the conditioning session (20 s each, 35 s apart). Of course, no electric shock is delivered, and the percentage of time of tetany (“freezing”) during the phase is recorded. • Stabilization phase: the day after the extinction phase, 30 minutes before the test phase, […] of 3 sounds (same sequence as used for conditioning), recording the percentage of time they remain still during this test phase. […]

naive rats (Wistar) [2] = assay: Pre-pulse inhibition (PPI) test, sensory filtering; format: in vivo, rat; conditions: for Percentage of pre-pulse inhibition, Average: average over first pulse intensities; for effect on PPI (schizophrenia-inducing effect): memantine 10 mg/kg (p<0.01), FENM even at high dose (20 mg/kg)
From the text: • Pre-pulse inhibition (PPI) test: One of the major problems of treatments targeting the central nervous system remains the achievement of the desired effect without the appearance of crippling psychological side effects, even exceeding the therapeutic benefit of the treatment. These effects are often significant (the rebound effect of benzodiazepines) or even paradoxical (the anxiety-producing effect of short-term serotonin reuptake inhibitors). In particular, they can induce a destabilization of sensory filtering and generate symptoms similar to schizophrenia.
(§4) Pre-impulse inhibition testing is based on the brain's ability to adapt to a moderate-intensity stimulus in order to limit the effect of the same high-intensity stimulus. In this test, the animals are placed in a soundproof cage and subjected either to a sound pulse of 120 decibels (dB) or to a sequence of 2 pulses spaced about 100 milliseconds apart, the second pulse being of fixed intensity of 120 dB and the first of variable intensity between 70 and 85 dB).
In animals with psychotic disorders of a schizophrenic nature, this inhibition is more or less eliminated.
as §1, §2, §3
as §4, with “the animals (12 per group) are placed” for “the animals are placed”, “being of a fixed intensity” for “being of fixed intensity”

NMDA receptor = assay: Affinity with the NMDA receptor; format: binding; conditions: compared with memantine
[3] = 10 mg/kg i.p., first pulse 72 dB
[4] = 10 mg/kg i.p., first pulse 76 dB
[5] = 10 mg/kg i.p., first pulse 80 dB
[6] = 10 mg/kg i.p., first pulse 84 dB

NC12CC3CC(C1)CC(CCF)(C3)C2
Percentage of time of tetany (freezing) during the stabilization phase (naive rats (Wistar) [1]; 5 mg/kg, Early treatment: one injection 30 minutes before the extinction phase): 21%
Percentage of time of tetany (freezing) during the stabilization phase (naive rats (Wistar) [1]; 5 mg/kg, Late treatment: one injection 30 minutes before the stabilization phase): 26%
Percentage of time of tetany (freezing) during the stabilization phase (naive rats (Wistar) [1]; 5 mg/kg, Protective effect: one injection 30 minutes before the conditioning phase): 23%
Percentage of time of tetany (freezing) during the stabilization phase (naive rats (Wistar) [1]; 10 mg/kg, Early treatment: one injection 30 minutes before the extinction phase): 25%
Percentage of time of tetany (freezing) during the stabilization phase (naive rats (Wistar) [1]; 10 mg/kg, Late treatment: one injection 30 minutes before the stabilization phase): 4%
Percentage of time of tetany (freezing) during the stabilization phase (naive rats (Wistar) [1]; 10 mg/kg, Protective effect: one injection 30 minutes before the conditioning phase): 6%
Percentage of time of tetany (freezing) during the stabilization phase (naive rats (Wistar) [1]; 20 mg/kg, Early treatment: one injection 30 minutes before the extinction phase): 6%
Percentage of time of tetany (freezing) during the stabilization phase (naive rats (Wistar) [1]; 20 mg/kg, Late treatment: one injection 30 minutes before the stabilization phase): 2%
Percentage of time of tetany (freezing) during the stabilization phase (naive rats (Wistar) [1]; 20 mg/kg, Protective effect: one injection 30 minutes before the conditioning phase): 2%
tetany in the stabilization phase compared with control (naive rats (Wistar) [1]; administered at conditioning, early or late post-traumatic treatment): virtually eliminate
Percentage of pre-pulse inhibition, Average (naive rats (Wistar) [2]; 5 mg/kg i.p.): 42%
Percentage of pre-pulse inhibition as a function of the intensity of the first pulse (naive rats (Wistar) [2]; 5 mg/kg i.p., first pulse 72 dB): 24%
Percentage of pre-pulse inhibition as a function of the intensity of the first pulse (naive rats (Wistar) [2]; 5 mg/kg i.p., first pulse 76 dB): 37%
Percentage of pre-pulse inhibition as a function of the intensity of the first pulse (naive rats (Wistar) [2]; 5 mg/kg i.p., first pulse 80 dB): 47%
Percentage of pre-pulse inhibition as a function of the intensity of the first pulse (naive rats (Wistar) [2]; 5 mg/kg i.p., first pulse 84 dB): 60%
Percentage of pre-pulse inhibition, Average (naive rats (Wistar) [2]; 10 mg/kg i.p.): 45%
Percentage of pre-pulse inhibition as a function of the intensity of the first pulse (naive rats (Wistar) [2]; [3]): 27%
Percentage of pre-pulse inhibition as a function of the intensity of the first pulse (naive rats (Wistar) [2]; [4]): 39%
Percentage of pre-pulse inhibition as a function of the intensity of the first pulse (naive rats (Wistar) [2]; [5]): 51%
Percentage of pre-pulse inhibition as a function of the intensity of the first pulse (naive rats (Wistar) [2]; [6]): 64%
Percentage of pre-pulse inhibition, Average (naive rats (Wistar) [2]; 20 mg/kg i.p.): 48%
Percentage of pre-pulse inhibition as a function of the intensity of the first pulse (naive rats (Wistar) [2]; 20 mg/kg i.p., first pulse 72 dB): 31%
Percentage of pre-pulse inhibition as a function of the intensity of the first pulse (naive rats (Wistar) [2]; 20 mg/kg i.p., first pulse 76 dB): 46%
Percentage of pre-pulse inhibition as a function of the intensity of the first pulse (naive rats (Wistar) [2]; 20 mg/kg i.p., first pulse 80 dB): 54%
Percentage of pre-pulse inhibition as a function of the intensity of the first pulse (naive rats (Wistar) [2]; 20 mg/kg i.p., first pulse 84 dB): 62%
effect on PPI (schizophrenia-inducing effect) (naive rats (Wistar) [2]): induces no effect
affinity with the NMDA receptor (measured in Ki) (NMDA receptor): same order of magnitude as that of memantine

CC12CC3CC(C)(C1)CC(N)(C3)C2 [Memantine, memantine]
rebound effect (increased tetany) compared with control during the stabilization phase (naive rats (Wistar) [1]; 10 mg/kg administered during the extinction phase): +25%
Percentage of pre-pulse inhibition, Average (naive rats (Wistar) [2]; 10 mg/kg i.p.): 31%
Percentage of pre-pulse inhibition as a function of the intensity of the first pulse (naive rats (Wistar) [2]; [3]): 19%
Percentage of pre-pulse inhibition as a function of the intensity of the first pulse (naive rats (Wistar) [2]; [4]): 24%
Percentage of pre-pulse inhibition as a function of the intensity of the first pulse (naive rats (Wistar) [2]; [5]): 36%
Percentage of pre-pulse inhibition as a function of the intensity of the first pulse (naive rats (Wistar) [2]; [6]): 44%
effect on PPI (schizophrenia-inducing effect) (naive rats (Wistar) [2]): induces an inhibition of the PPI effect
